Results taken from ChEMBL document CHEMBL1151873, “Protein tyrosine phosphatase 1B inhibitory effects of depsidone and pseudodepsidone metabolites from the Antarctic lichen Stereocaulon alpinum” (Bioorg Med Chem Lett, 2009).
pIC50: −log10 of the molar value. Active and inactive are the calls of the source. No cut-off for these calls is given here.

Legend:
[1] = target: T1, Tyrosine-protein phosphatase non-receptor type 1 (Homo sapiens, UniProt P18031); experiment: (§1) Inhibition of PTP1B
T1 sequence (P18031 whole entry): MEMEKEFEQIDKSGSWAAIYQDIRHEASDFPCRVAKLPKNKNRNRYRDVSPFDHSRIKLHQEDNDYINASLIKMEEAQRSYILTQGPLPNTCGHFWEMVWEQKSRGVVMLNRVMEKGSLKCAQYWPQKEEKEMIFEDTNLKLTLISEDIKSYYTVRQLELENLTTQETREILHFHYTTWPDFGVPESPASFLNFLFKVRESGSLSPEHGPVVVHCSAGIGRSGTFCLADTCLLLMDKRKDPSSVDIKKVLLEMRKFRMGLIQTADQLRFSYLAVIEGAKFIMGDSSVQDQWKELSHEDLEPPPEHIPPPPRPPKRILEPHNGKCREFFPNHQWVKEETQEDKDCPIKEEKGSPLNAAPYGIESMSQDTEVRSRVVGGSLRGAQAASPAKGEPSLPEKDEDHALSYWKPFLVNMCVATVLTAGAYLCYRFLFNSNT

[2] = target: T2, Tyrosine-protein phosphatase non-receptor type 1 (Homo sapiens) (UniProt P18031); experiment: as §1
T2 sequence (whole entry): T1 sequence (P18031 whole entry)

[3] = target: T2, Tyrosine-protein phosphatase non-receptor type 1 (Homo sapiens); experiment: Non competitive inhibition of PTP1B assessed as inhibition of substrate catalysis by Lineweaver-Burke plot

SMILES | pIC50 [1] | Activity [2] | Activity [3]
COC(=O)c1c(C)cc(OC(=O)c2c(C)cc(O)c(C=O)c2O)c(C)c1O [ATRANORIN] | 4.20 | – | –
COC(=O)c1c(C)cc(O)cc1O [METHYL ORSELLINATE] | < 3.70 | – | –
CCCCCc1c2c(cc(O)c1C(=O)OC)OC(=O)c1c(cc(OC)cc1C(=O)CCCC)O2 | 5.52 | – | –
CCCCCc1cc(O)cc(O)c1Oc1cc(OC)cc2c1C(=O)OC2(CCCC)OC (stereo not drawn) | 5.16 | Dose-dependent effect | Active
CCCCCc1c(Oc2cc(OC)cc3c2C(=O)OC3(CCCC)OC)c(O)cc(O)c1C(=O)O (stereo not drawn) | 5.61 | Dose-dependent effect | –
COc1cc(O)c(C(C)=O)c(O)c1C | < 3.70 | – | –
CCCCCc1c2c(cc(OC)c1C(=O)OC)OC(=O)c1c(cc(OC)cc1C(=O)CCCC)O2 | 5.13 | – | –
CCCCCc1c2c(cc(O)c1C(=O)O)OC(=O)c1c(cc(OC)cc1C(=O)CCCC)O2 | – | Dose-dependent effect | Active
COC(=O)c1c(C)cc(O)c(C=O)c1O [METHYL HAEMATOMMATE] | < 3.70 | – | –
